From ChEMBL document CHEMBL1146982, “Alpha-methylated derivatives of 2-arachidonoyl glycerol: synthesis, CB1 receptor activity, and enzymatic stability” (Bioorg Med Chem Lett, 2006)
Active and inactive are the calls of the source. The calls are words filed in the database; no cut-off is given here.

Key:
Assay type in all cases: functional, tissue-based
[1] = target: Cannabinoid receptor 1 (Rattus norvegicus) (UniProt P20272); experiment: Efficacy at CB1 receptor in rat brain by [35S]GTPgammaS binding assay (basal value set at 100%)
Cannabinoid receptor 1 (Rattus norvegicus), sequence (P20272 whole entry): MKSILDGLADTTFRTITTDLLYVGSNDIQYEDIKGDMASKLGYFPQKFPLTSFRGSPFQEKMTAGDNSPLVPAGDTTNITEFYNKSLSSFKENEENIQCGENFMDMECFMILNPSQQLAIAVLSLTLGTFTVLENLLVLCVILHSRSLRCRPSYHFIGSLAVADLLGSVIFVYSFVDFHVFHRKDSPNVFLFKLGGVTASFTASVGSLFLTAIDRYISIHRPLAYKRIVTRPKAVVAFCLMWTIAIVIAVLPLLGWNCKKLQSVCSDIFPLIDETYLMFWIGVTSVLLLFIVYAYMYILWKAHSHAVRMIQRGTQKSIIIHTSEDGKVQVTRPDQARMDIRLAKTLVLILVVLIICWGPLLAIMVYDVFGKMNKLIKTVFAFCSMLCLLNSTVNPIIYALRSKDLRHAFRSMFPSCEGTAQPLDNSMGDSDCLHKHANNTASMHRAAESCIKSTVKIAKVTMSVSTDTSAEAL

Cannabinoid receptor 1 = Cannabinoid receptor 1 (Rattus norvegicus, UniProt P20272); experiment: Potency at CB1 receptor in rat brain by [35S]GTP-gamma-S binding assay
Cannabinoid receptor 1, sequence (P20272 whole entry): as above

[2] = target: Cannabinoid receptor 1 (Rattus norvegicus) (UniProt P20272); experiment: Efficacy at CB1 receptor in rat brain by [35S]GTP-gamma-S binding assay at 0.1 mM (basal value set at 100%)
[3] = target: Cannabinoid receptor 1 (Rattus norvegicus) (UniProt P20272); experiment: Potency at CB1 receptor in rat brain by [35S]GTP-gamma-S binding assay at 0.1 mM

SMILES	Emax [1] [%]	EC50 (Cannabinoid receptor 1) [µM]	Emax [2]	Log EC50 [3]
CCCCC/C=C\C/C=C\C/C=C\C/C=C\CCCC(=O)OC(CO)CO	620	–	–	–
CCCCC/C=C\C/C=C\C/C=C\C/C=C\CC[C@H](C)C(=O)OC(CO)CO	227	15.8	–	–
CCCCC/C=C\C/C=C\C/C=C\C/C=C\CC[C@@H](C)C(=O)OC(CF)CF	–	–	inactive	inactive
CCCCC/C=C\C/C=C\C/C=C\C/C=C\CC[C@@H](C)C(=O)OC(CO)CO	407	10	–	–
CCCCC/C=C\C/C=C\C/C=C\C/C=C\CC[C@@H](C)C(=O)OC(CO)CF (mixture of isomers)	168	15.8	–	–
